According to US6458585B1, “Cytokine-free culture of dendritic cells” (Nexell Therapeutics Inc., priority 1996, dated 2002):

B1: IL-4: interleukin-4, Genzyme; added to GM-CSF (protein, UniProt P05112 25-153, looked up)
Interleukin-4: HKCDITLQEIIKTLNSLTEQKTLCTELTVTDIFAASKNTTEKETFCRAATVLRQFYSHHEKDTRCLGATAQQFHRHKQLIRFLKRLDRNLWGLAGLNSCPVKEANQSTLENFLERLKTIMREKYSKCSS

Key:
Type in all cases: cell-based, human
adherent PBMNC [1] = assay: Cell counts and viability of plastic adherent cells cultured with non-cytokine additives in polystyrene plates; parameters: % VIABLE: concentration or dose not given beside the values; conditions: for % VIABLE: propidium iodide
Description: Viability Determination: Prior to acquisition, 5 ul propidium iodide (PI) was added to each tube for use as a viability check. The cells were vortexed and acquired within 10 min of PI addition.
(§1) Enrichment and Culture of Adherent Cells Using Polystyrene Tissue Culture Plates: PBMNC were resuspended in culture media (X-VIVO 15™+10% autologous serum) at 2×10^6 cells/ml. Cells were placed into 48 well polystyrene tissue culture plates […] and incubated for 2 hours in a 5% CO2, ambient O2, 37° C. humidified incubator. Non-adherent cells were removed from the plates then wells were rinsed with X-VIVO 15™ containing no serum. Cells remaining in the wells were adherent cells. These cells were cultured by adding 2 ml of X-VIVO 15™ to each well plus GM-CSF and IL-4 at final concentrations of 50 ng/ml and 1000 U/ml or the following: cAMP at 0.5 mM, dibutyryl cAMP at 0.1 mM, NaF at 0.25 mM, theophylline at 0.5 mM, PGE at 0.1 mM, Vitamin D3 at 2.5 uM, Vitamin E at 0.1%, Retinoic Acid at 10^−6 M, PMA at 1 pM, Linoleic Acid at 5 ug/ml, or Ca^++ Ionophore at 10 mM. Furthermore, cells were also cultured with the above non-cytokine additives plus GM-CSF at 50 ng/ml. Cells were cultured in a 5% CO2, ambient O2, 37° C. humidified incubator for 7 days.
(§2) Results: In the set of experiments using plastic adherent cells grown in polystyrene tissue culture plates, a Day 0 analysis of the cells was not performed. However, these cultures were analyzed for the presence of DC on days 4 and 7. Analysis perfomed were cell counts, viability via propidium iodide, morphology under Wright-Geimsa staining, and immunohistochemical staining using an anti-S100 antibody.

adherent PBMNC [2] = assay: S100 immunohistochemistry of plastic adherent cells cultured with non-cytokine additives; conditions: for percentages of S100+ cells: day 7, additive added to GM-CSF 50 ng/ml
Description: Immunocytochemical staining: PBS (phosphate buffered saline) was made by dissolving 5 PBS tablets into 1000 ml millipore water. Cytospin slides were soaked in PBS. […] Slides were rinsed with PBS one time. Non-specific binding sites were blocked by incubating with normal serum matching source of secondary antibody (i.e. if secondary antibody is biotinylated goat-anti-mouse, used normal goat serum) at room temp. for 15 min. in a humidified environment. Excess serum was shaken from slides and placed 100 ul of primary antibody on slide, making sure cells are covered with liquid and incubated in humidified environment, room temp, for one hour. Negative control slides were incubated with normal serum for this hour. Slides were rinsed 3 times with PBS. Slides were incubated with biotinylated antibody reactive against the primary antibody (i.e. if primary antibody is mouse-anti-human, use a biotinylated goat-anti-mouse antibody) for 1 hour in humidity. Slides were rinsed 3 times with PBS. Slides were incubated with streptavidin-peroxidase, 2 drops/slide, for 30 min. in humidity. Slides were rinsed 3 times with PBS.
Chromagen solution was made with 5 ml millipore water+2 drops of chromagen buffer+1 drop of concentrated chromagen+1 drop of substrate, and 4-5 drops were added to each slide. […] Slides were counterstained with hematoxylin for about 5 min, or until cell nuclei were stained purple. Cells were rinsed with tap water and allowed to air dry. Slides were covered with crystal mount and oven dried at 80 degrees for 15 min. Slides were allowed to cool, then coversliped with mounting medium.
as §1
(§3) Cytospin slide preparation, Wright-Geimsa and immunohistochemical staining of the cultured cells were conducted as described in Example 1 and 2 above. Mixed lymphocyte reactions (MLR's) were setup using T cells (responders) and dendritic cell enriched cultures (stimulators) from bulk PBMNC cultures, as described above in Example 1.
as §2

adherent PBMNC [3] = assay: DC morphology (Wright-Geimsa) of plastic adherent cells cultured with non-cytokine additives
Description: Cytofunnels were attached to microscope slides. 50,000 to 100,000 cells were removed from each culture and resuspended in approximately 100 to 200 ul of PBS-CMF. Slides were placed in the Cytospin® centrifuge and spun at 100 rpm for 4 min. Cytofunnels were removed from the slides and the slides were air dried for 1 minute. Ten drops of Wright-Geimsa stain were placed onto each slide and allowed to fix for 1 to 2 minutes. Ten drops of water were added to each slide and allowed to sit for 2 to 4 minutes. The slides were rinsed and air dried.
Reading of Cytospin Slides: Slides were read under phase contrast microscopy, 40× and 60× oil magnification. One hundred cells were identified and characterized morphologically as either dendritic cells or non-dendritic cells (lymphocytes and monocyte, or CD34+-derived cells in those cases). Digital images were taken using a color monitor and color video printer.
as §1, §3, §2

Row | Molecule | TOTAL CELLS (adherent PBMNC [1]; Day 4, with GM-CSF present) [E + 05] | % VIABLE (adherent PBMNC [1]; Day 4, with GM-CSF present) [%] | TOTAL CELLS (adherent PBMNC [1]; Day 4, without GM-CSF) [E + 05] | % VIABLE (adherent PBMNC [1]; Day 4, without GM-CSF) [%] | TOTAL CELLS (adherent PBMNC [1]; Day 7, with GM-CSF present) [E + 05] | % VIABLE (adherent PBMNC [1]; Day 7, with GM-CSF present) [%] | TOTAL CELLS (adherent PBMNC [1]; Day 7, without GM-CSF) [E + 05] | % VIABLE (adherent PBMNC [1]; Day 7, without GM-CSF) [%] | % S100+ (adherent PBMNC [2]; Day 4, with GM-CSF present) [%] | % S100+ (adherent PBMNC [2]; Day 4, without GM-CSF) [%] | % S100+ (adherent PBMNC [2]; Day 7, with GM-CSF present) [%] | % S100+ (adherent PBMNC [2]; Day 7, without GM-CSF) [%] | % DC (adherent PBMNC [3]; Day 4, with GM-CSF present) [%] | % DC (adherent PBMNC [3]; Day 4, without GM-CSF) [%] | % DC (adherent PBMNC [3]; Day 7, with GM-CSF present) [%] | % DC (adherent PBMNC [3]; Day 7, without GM-CSF) [%] | percentages of S100+ cells (adherent PBMNC [2])
1 | Cc1c(C)c2c(c(C)c1O)CCC(C)(CCCC(C)CCCC(C)CCCC(C)C)O2 (mixture of isomers) [Vit E] | 1.38 | 97.48 | 1.64 | 78.65 | 1.05 | 94.21 | 1.75 | 71.91 | 26.00 | 19.00 | 19.00 | 11.00 | 4.50 | 2.50 | 6.00 | 3.00 | 
2 | CNc1ccc2oc(CC3OC4(CCC3C)OC(C(C)C(=O)c3ccc[nH]3)C(C)CC4C)nc2c1C(=O)O (stereo not drawn) [Ca + + Iono] | 1.66 | 96.23 |  |  |  |  | 1.54 | 84.02 | 20.00 |  |  | 29.00 | 9.50 |  |  | 6.00 | 
3 | [F-].[Na+] [NaF, Sodium Fluoride] | 1.90 | 67.04 | 2.19 | 72.46 | 1.44 | 30.61 | 2.18 | 44.31 | 7.00 | 0.00 | 5.00 | 2.50 | 0.00 | 0.00 | 0.00 | 0.00 | 
4 | CCCCC[C@H](O)/C=C/[C@H]1[C@H](O)CC(=O)[C@@H]1CCCCCCC(=O)O [PGE, Prostaglandin E1] | 2.35 | 92.40 | 2.54 | 71.62 | 1.84 | 60.29 | 2.91 | 59.78 | 6.00 | 0.00 | 26.50 | 5.00 | 5.00 | 3.00 | 5.50 | 0.00 | 
5 | CCCCCCCCCCCCCC(=O)O[C@@H]1[C@@H](C)[C@@]2(O)[C@@H](C=C(CO)C[C@]3(O)C(=O)C(C)=C[C@@H]23)[C@@H]2C(C)(C)[C@]12OC(C)=O [PMA, Phorbol Myristate Acetate] | 1.45 | 97.60 | 1.64 | 77.17 | 1.04 | 95.15 | 1.51 | 82.20 | 20.00 | 4.00 | 26.50 | 6.50 | 4.50 | 1.00 | 0.00 | 1.00 | 
6 | CC1=C(/C=C/C(C)=C/C=C/C(C)=C/C(=O)O)C(C)(C)CCC1 [Ret Acid] | 1.21 | 95.30 | 1.48 | 60.67 |  | 88.52 | 1.66 | 45.17 | 9.00 | 7.00 | 14.00 | 7.00 | 1.50 | 10.00 | 4.00 | 0.00 | 
7 | C=C1CCC(O)CC1=CC=C1CCCC2(C)C1CCC2C(C)CCCC(C)C (stereo not drawn) [Vit D3] | 1.95 | 95.86 | 2.37 | 76.06 | 1.64 | 67.44 | 1.82 | 75.13 | 8.00 | 5.50 | 39.00 | 16.00 | 3.00 | 1.50 | 5.00 | 0.50 | 
8 | Nc1ncnc2c1ncn2[C@@H]1O[C@@H]2COP(=O)(O)O[C@H]2[C@H]1O [cAMP, Cyclic Adenosine Monophosphate] | 2.02 | 87.60 | 1.86 | 76.37 | 1.56 | 60.51 | 2.08 | 19.89 | 41.00 | 10.50 | 47.00 | 10.00 | 3.00 | 0.00 | 0.00 | 0.50 | greatest percentages of S100+ cells
9 | CCCC(=O)Nc1ncnc2c1ncn2[C@@H]1O[C@@H]2COP(=O)(O)O[C@H]2[C@H]1OC(=O)CCC [dibutyryl cAMP, Dibutyryl cAMP] | 1.74 | 85.86 | 2.18 | 71.00 | 1.37 | 61.25 | 2.59 | 58.87 | 17.00 | 6.00 | 14.00 | 8.00 | 2.50 | 0.00 | 2.50 | 0.00 | 
10 | Cn1c(=O)c2[nH]cnc2n(C)c1=O [theophylline, Theophylline] | 1.34 | 88.75 | 2.12 | 75.27 | 9.65 | 59.55 | 1.81 | 56.49 | 8.50 | 6.00 | 11.00 | 7.50 | 6.50 | 0.50 | 3.50 | 0.00 | 
11 | B1 |  |  |  |  |  |  |  |  |  |  |  |  |  |  |  |  | greatest percentages of S100+ cells
